PubChem BioAssay (NCI)
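How tested: cells in 96-well plates exposed to compound for 48 hours at five concentrations. At the GI50, growth is halved. TGI is the concentration that stops growth completely.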

Experiments:
Experiment in all cases: inhibition of tumour cell growth, NCI panel, 48 h
OVCAR-8 ovarian = system: OVCAR-8 ovarian
PC-3 prostate = system: PC-3 prostate
SK-MEL-2 melanoma = system: SK-MEL-2 melanoma
DU-145 prostate = system: DU-145 prostate
SR leukemia = system: SR leukemia
SN12C renal = system: SN12C renal
SK-OV-3 ovarian = system: SK-OV-3 ovarian
MDA-MB-435 = system: MDA-MB-435

Compound | GI50 (OVCAR-8 ovarian) | TGI (OVCAR-8 ovarian) | GI50 (PC-3 prostate) | TGI (PC-3 prostate) | GI50 (SK-MEL-2 melanoma) | TGI (SK-MEL-2 melanoma) | GI50 (DU-145 prostate) | TGI (DU-145 prostate) | GI50 (SR leukemia) | TGI (SR leukemia) | GI50 (SN12C renal) | TGI (SN12C renal) | TGI (SK-OV-3 ovarian) | GI50 (MDA-MB-435) | TGI (MDA-MB-435) | GI50 (SK-OV-3 ovarian)
CC(=O)O[C@H]1C(=O)[C@@]2(C)C([C@H](OC(=O)c3ccccc3)[C@]3(O)C[C@H](OC(=O)[C@H](O)[C@@H](NC(=O)c4ccccc4)c4ccccc4)C(C)=C1C3(C)C)[C@]1(OC(C)=O)CO[C@@H]1C[C@@H]2O (stereo not given in full) | 0.00804 µM | > 50 µM | 0.0129 µM | > 50 µM | 0.0149 µM | > 50 µM | 0.00673 µM | 0.0272 µM | < 0.005 µM | > 50 µM | 0.0142 µM | > 50 µM | > 50 µM | – | – | –
CN[C@@H](C)C(=O)N[C@H]1CN(S(=O)(=O)c2cccc(S(=O)(=O)N3CC[C@H]4CC[C@@H](C(=O)NC(c5ccccc5)c5ccccc5)N4C(=O)[C@@H](NC(=O)[C@H](C)NC)C3)c2)CC[C@H]2CC[C@@H](C(=O)NC(c3ccccc3)c3ccccc3)N2C1=O | 5.64 µM | 26.8 µM | 21.5 µM | > 63.3 µM | < 0.0223 µM | 10.9 µM | 15.1 µM | 28.3 µM | 1.95 µM | > 100 µM | 16.6 µM | 36 µM | – | 1.89 µM | 21.6 µM | –
COc1ccc(C(=O)c2cc(OC)c(OC)c(OC)c2OC)cc1O | 4.06 µM | > 100 µM | 4.06 µM | > 100 µM | 4.28 µM | > 100 µM | 4.64 µM | > 100 µM | 0.61 µM | > 100 µM | 6.64 µM | > 100 µM | 90.1 µM | – | – | 3.33 µM
CCn1cc(C(=O)O)c(=O)c2cc(F)c(N3CCN(S(=O)(=O)c4cccc5ccccc45)CC3)cc21 | 3.09 µM | > 100 µM | 2.66 µM | > 100 µM | 3.55 µM | 8.72 µM | 3.97 µM | > 100 µM | – | – | 2.59 µM | > 100 µM | 13.4 µM | 3.13 µM | 14.5 µM | 3.11 µM
COCC([C@@H](O)C(O)C(=O)NCC[C@@H](C)c1nc(/C=C/CC2OC3(C[C@H](O)C2C)OC(C(C[C@H](O)C(C)[C@H](O)C(C)/C=C(C)/C(C)=C/C=C/C(C)=C/C#N)OC)[C@@H](OP(=O)(O)O)C3(C)C)co1)N(C)C (stereo not given in full) | – | 0.000423 µM | – | 0.000321 µM | – | 0.000333 µM | – | 0.000322 µM | – | – | – | 0.00034 µM | 0.00154 µM | – | 0.000336 µM | –
COC(=O)OC1C(O[C@H]2C[C@H]3[C@@H]4CC=C5C[C@@H](O)CC[C@]5(C)[C@H]4CC[C@]3(C)[C@H]2[C@H](C)C(=O)CCC(C)C)OCC(O)C1OC1OCC(O)C(O)C1OC(=O)c1ccc(OC)cc1 (stereo not given in full) | 3.17 µM | > 27.5 µM | 0.00436 µM | 0.29 µM | 0.00538 µM | 0.0855 µM | 0.0127 µM | 5.18 µM | – | – | 1.46 µM | > 27.5 µM | 0.611 µM | 0.00874 µM | 0.0868 µM | 0.0073 µM
FC(F)(F)Oc1cccc(-c2cc(NCCCCCCNc3cc(-c4cccc(OC(F)(F)F)c4)nc4ccc(N5CCCC5)cc34)c3cc(N4CCCC4)ccc3n2)c1 | 2.13 µM | 5.08 µM | 2.02 µM | 4.42 µM | 1.96 µM | 3.63 µM | 2.46 µM | 5.76 µM | – | – | 1.64 µM | 3.06 µM | 3.36 µM | 1.82 µM | 3.27 µM | 1.78 µM
COc1cc(CNc2nc3cc(N)cc(N)c3nc2-c2ccccc2)cc(OC)c1 | 2.8 µM | 8.1 µM | 3.05 µM | 14.4 µM | 7.77 µM | 41 µM | 29.7 µM | > 100 µM | 3.84 µM | > 100 µM | 11.4 µM | > 100 µM | 54.2 µM | – | – | 15.1 µM
COc1ccc(OC)c(/C=C/c2nc(=S)n(-c3ccc(Cl)cc3)[nH]2)c1 | 28.4 µM | > 100 µM | 8.91 µM | > 100 µM | 4.05 µM | > 100 µM | 19.1 µM | > 100 µM | – | – | 6.07 µM | > 100 µM | > 100 µM | 2.83 µM | > 100 µM | 9.4 µM
O=[N+]([O-])c1ccc(Cl)c2c([N+](=O)[O-])cccc12 | – | > 10 µM | – | > 10 µM | – | > 10 µM | – | – | – | > 10 µM | – | > 10 µM | 7.48 µM | – | 9.61 µM | –
COc1ccc(OC)c(NCC(=O)n2nc(/C=C\c3ccc(O)c(OC)c3)cc2/C=C\c2ccc(O)c(OC)c2)c1 | 3.02 µM | 11.9 µM | 2.52 µM | > 100 µM | 2.3 µM | 7.04 µM | 3.23 µM | 12.7 µM | – | – | 2.52 µM | > 100 µM | 6.23 µM | 1.5 µM | 9.6 µM | 2.38 µM
CCCCCCCCCCCC[N+]1(CCCCCCCCCCCC)CCCC(C)C1 (stereo not given) | – | – | 0.167 µM | 0.536 µM | – | – | 0.57 µM | 1.87 µM | – | – | – | – | – | 0.277 µM | 1.09 µM | –
